According to ChEMBL document CHEMBL1201862, “PubChem BioAssay data set” (2004):
Active and inactive are the calls of the source.

Columns and labels:
[1] = CRF-BP/CRF-R2 complex antagonists, dose response, cell-based, uHTS hits, 384-well (AID 651639); format: functional, Homo sapiens; conditions: read-out: IC50_Mean
Beta-lactamase [2] = biological target: Beta-lactamase (Salmonella choleraesuis (strain SC-B67), UniProt Q5J463); assay: Epi-absorbance-based counterscreen for selective VIM-2 inhibitors: dose response biochemical high throughput screening assay to identify inhibitors of TEM-1 serine-beta-lactamase.
[3] = biological target: T1, Corticotropin-releasing factor receptor 2/Corticotropin-releasing factor-binding protein (Homo sapiens, UniProt P24387+Q13324); assay: Dose Response confirmation of uHTS hits for small molecule antagonists of the CRF-binding protein and CRF-R2 receptor complex.; format: functional; conditions: read-out: IC50_Mean
T1 sequence (Q13324 whole entry): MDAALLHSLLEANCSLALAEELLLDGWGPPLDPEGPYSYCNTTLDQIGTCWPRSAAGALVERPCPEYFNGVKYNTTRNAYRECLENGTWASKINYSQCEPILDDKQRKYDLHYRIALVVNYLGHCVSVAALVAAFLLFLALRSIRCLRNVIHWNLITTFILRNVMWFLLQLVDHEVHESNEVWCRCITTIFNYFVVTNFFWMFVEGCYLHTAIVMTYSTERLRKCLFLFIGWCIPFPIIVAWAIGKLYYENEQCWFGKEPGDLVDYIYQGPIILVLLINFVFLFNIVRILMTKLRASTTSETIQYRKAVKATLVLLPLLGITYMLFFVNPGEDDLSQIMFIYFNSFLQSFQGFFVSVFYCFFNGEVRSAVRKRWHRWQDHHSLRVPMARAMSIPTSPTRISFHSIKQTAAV
T1 sequence (P24387 whole entry): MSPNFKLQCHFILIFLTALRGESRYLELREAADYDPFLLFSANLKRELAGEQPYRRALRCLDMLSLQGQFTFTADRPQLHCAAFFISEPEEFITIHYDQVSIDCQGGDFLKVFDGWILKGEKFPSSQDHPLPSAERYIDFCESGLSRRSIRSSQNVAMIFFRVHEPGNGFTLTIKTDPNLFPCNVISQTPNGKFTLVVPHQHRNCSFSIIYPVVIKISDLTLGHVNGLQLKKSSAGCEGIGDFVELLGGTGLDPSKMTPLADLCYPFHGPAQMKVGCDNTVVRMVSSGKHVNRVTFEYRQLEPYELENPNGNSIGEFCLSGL

Beta-lactamase [4] = biological target: T2, Beta-lactamase (Pseudomonas aeruginosa, UniProt Q79MP6); assay: […] counterscreen for selective VIM-2 inhibitors: dose response biochemical high throughput screening assay to identify inhibitors of IMP-1 metallo-beta-lactamase.
Beta-lactamase [5] = biological target: T2, Beta-lactamase; assay: IMP-1 metallo-beta-lactamase inhibitors, dose response, selectivity assay for VIM-2 inhibitor project, biochemical, epi-absorbance (AID 1920)
[6] = biological target: T1, Corticotropin-releasing factor receptor 2/Corticotropin-releasing factor-binding protein; assay: activators of CRF receptor 2 with binding protein – uHTS hits, confirmation (AID 602473); format: functional; conditions: read-out: EC50_Mean
Major prion protein = Major prion protein (Homo sapiens, UniProt P04156); format: functional, cell-based
[7] = inhibitors of non-replicating M. tuberculosis, dose response, luciferase, dry powder (AID 651619); format: functional; conditions: Mycobacterium tuberculosis
[8] = growth inhibition of replicating M. tuberculosis, dose response, counter-screen, dry powder, IC90 (AID 651617); format: functional; conditions: Mycobacterium tuberculosis
[9] = cytotoxicity in HeLa cells, dose response, cytotoxicity control, cell-based, plate reader, dry powder (AID 651946); format: functional
[10] = inhibitors of non-replicating M. tuberculosis, dose response, luciferase, dry powder (AID 651620); format: functional; conditions: Mycobacterium tuberculosis
[11] = HEK293T cytotoxicity, dose response, cytotoxicity control for miR-122 modulator project, cell-based, inhibitor set, cherry-pick, set 2 (AID 720697); format: functional
[12] = NIH:OVCAR-3 ovarian cancer cell cytotoxicity, dose response, PAX8 inhibitor project, plate reader, dry powder samples (AID 743044); format: functional, cell-based
[13] = cytotoxicity in OVCAR8 ovarian cancer cells, dose response, PAX8 project, cell-based, plate reader, dry powder samples (AID 743197); format: functional; conditions: OVCAR-8
[14] = A2780 ovarian cancer cell cytotoxicity, dose response, cytotoxicity control, plate reader, dry powder samples (AID 743046); format: functional, cell-based
Paired box protein Pax-8 = Paired box protein Pax-8 (Homo sapiens, UniProt Q06710); assay: inhibitors of PAX8-driven TPO luciferase reporter, dose response, RMG-I cells, cherry-pick (AID 687027); format: functional, cell-based;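 note: luciferase reporter driven by Pax8 target thyroperoxidase promoter measured by SteadyGlo luminescence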
[15] = IOSE-T80 ovarian epithelial cell cytotoxicity, dose response, cytotoxicity control for PAX8 inhibitor project, plate reader, dry powder samples (AID 743045); format: functional, cell-based
[16] = T. cruzi intracellular amastigote growth inhibition, dose response, imaging, CA-I/72 strain, bovine embryo skeletal muscle, dry powder (AID 651885); format: functional, cell-based
[17] = T. cruzi growth inhibition in host cells, dose response, cell-based, plate reader, dry powder, set 2 (AID 652275); format: functional
[18] = growth inhibition of intracellular T. cruzi, dose response, cell-based, plate reader, dry powder samples (AID 651845); format: functional
[19] = HIV Env cell-cell fusion inhibitors, dose response, HIV entry, plate reader, dry powder (AID 687023); format: functional, cell-based
[20] = HepG2 cell cytotoxicity, dose response, cytotoxicity control, cherry-picks, set 5 (AID 1053118); format: functional, cell-based
[21] = inhibitors of fibronectin matrix deposition, dose response, AH1F cells, Alexa488-FN fluorescence, cherry-picks (AID 1035475); format: functional, cell-based
[22] = HEK293 cell cytotoxicity, dose response, cytotoxicity control, cherry-picks, set 5 (AID 1053117); format: functional, cell-based

For `Oc1nc(SCc2nnc(S)n2-c2ccccc2)nc2sc3c(c12)CCC3`, the IC50 [1] was 6.63 µM (active), the IC50 (Beta-lactamase [2]) was > 59.6 µM (inactive) and the IC50 [3] was 13.5 µM (active). The IC50 (Beta-lactamase [4]) was > 59.6 µM (inactive), the IC50 (Beta-lactamase [5]) was > 59.6 µM (inactive) and the EC50 [6] was > 53 µM (inactive).
In the case of `Cc1cccc2c(=O)c(-c3ccc4c(c3)OCO4)c(NC(=O)c3ccco3)oc12`, the IC50 (Major prion protein) is reported as 9.57 µM (active) and the IC50 (cells) is reported as > 138 µM (inactive).
With `[O-][S+](Cc1ccccc1)c1nnc(-c2ccccc2)o1` (stereo not given) the IC90 [7] was 1 µM (active), the IC90 [8] was 31 µM (active) and the AC50 [9] was 32.2 µM (active). The IC90 [10] was 1 µM (active).
With `CCCNC(=O)Nc1ccc2c(c1)C(=O)N(C)[C@@H]1CC[C@@H](CC(=O)NCC3CCCCC3)O[C@@H]1CO2` the AC50 [11] was 456 nM (active).
With `COc1ccc(-c2ccc3c(c2)[C@@H]2[C@@H](CCN2C(=O)NC2CCCCC2)[C@H](CO)N3C)cc1` the AC50 [12] was 49.5 µM (active), the AC50 [13] was > 60 µM (inactive) and the AC50 [14] was 32.8 µM (active). For the same compound, the AC50 (Paired box protein Pax-8) was 10.7 µM (active) and the AC50 [15] was 46.8 µM (active).
In the case of `C[C@@H]1CN([C@@H](C)CO)C(=O)c2cccc(NC(=O)c3ccncc3)c2O[C@H]1CN(C)Cc1ccc2c(c1)OCO2`, the IC50 [16] is reported as 56.5 nM (active), the AC50 [17] is reported as 17 nM (active) and the AC50 [18] is reported as 57.1 nM (active).
With `CCOc1ccc(OCC)c(S(=O)(=O)NCc2ccncc2)c1` the AC50 [19] was > 70 µM (inactive).
For `C[C@H](CO)N1C[C@H](C)[C@H](CN(C)Cc2ccc(-c3ccccc3)cc2)Oc2ccc(NC(=O)CCCN(C)C)cc2C1=O`, the AC50 [20] was 11.8 µM (active), the AC50 [21] was 30.8 µM (active) and the AC50 [22] was 12.7 µM (active).
